Experimental data: patent US9951314B2, “Differentiation of human embryonic stem cells” (Janssen Biotech, Inc., priority 2010, dated 2018)

Key:
[1] = system: human embryonic stem (hES) cell line H1; conditions: MCDB-131 with 3.7 g/l versus 1 g/l bicarbonate
Description: Cells of the human embryonic stem (hES) cell line H1 at passage 46 (p46) were seeded as cell colonies to [sequence] (1:30 dilution) coated dishes at a 1 to 3 passage ratio by lifting cells with Dispase (Catalog #17105-041, Invitrogen, CA) and plating the cells in MEF-CM with 20 ng/ml of FGF2. The media was changed daily with fresh MEF-CM with 20 ng/ml of FGF2, until initiation of differentiation into definitive endoderm (DE) as follows: • a. MCDB-131 (Catalog #10372-019, Invitrogen, CA) medium supplemented with 2% fatty acid-free BSA (Catalog #68700, Proliant, IA), 1× GlutaMax™ (Catalog #35050-079, Invitrogen, Ca) and 100 ng/ml activin A (R&D Systems, MN) plus 20 ng/ml WNT-3a (Catalog #1324-WN-002, R&D Systems, MN) for one day, followed by treatment with MCDB-131 supplemented with 2% BSA, GlutaMax™, and 100 ng/ml activin A each day for an additional three days; or • b.
At day 4, samples were collected for FACS and gene expression analysis using real-time PCR, and counted by ViaCount® (Guava®, Millipore, Billerica, Mass.).

[2] = system: human embryonic stem cell line H1; experiment: Differentiation of H1 cells to definitive endoderm in DMEM with low or high glucose; flow cytometry and qRT-PCR (Example 2); assay type: cell-based; conditions: for cells positive for CXCR4: flow cytometry
Description: Similar glucose related effects on differentiation were also observed in cultures differentiated with DMEM containing either 5.5 mM (low) or 25 mM (high) glucose concentration (Cat #s 10567-014 and 21063-029, Invitrogen, CA). As described above, for controls, cells were seeded as single cells, cultured 3 days in MEF conditioned media and differentiated in MCDB-131 with 5.5 mM or 25 mM glucose supplemented media, or in DMEM high or low glucose media supplemented with 2% fatty acid free BSA, 100 ng/ml activin A, and 20 ng/ml WNT-3a on the first day, and 2% fatty acid free BSA and 100 ng/ml activin A for the next three days with daily media change. Similar to results with MCDB-131 media, where elevated glucose inhibits definitive endoderm formation as compared to low glucose media treated cells, we observed that a high glucose concentration in DMEM reduced hES cell differentiation. By flow cytometry, following differentiation to definitive endoderm, 88.6% of cells were positive for CXCR4 in media containing 5.5 mM glucose versus 80% CXCR4 positive cells in media containing 25 mM glucose. Additionally, markers of differentiation to definitive endoderm as measured by qRT-PCR (SOX17) were decreased while markers of undifferentiated cells (OCT4) or alternative differentiation fates (CDX2) were increased (FIG. 5) in cells fed media containing high glucose versus those fed low glucose media. This effect was due at least in part to the pH of the media as we noted that over the four day differentiation, media pH dropped after 48 hours of differentiation day. Furthermore, the higher the starting and ending pH of culture media (8.1>pH>7.6) (FIG. 6) during definitive endoderm formation, the more complete the conversion to definitive endoderm.

[3] = system: human embryonic stem cell line H1; experiment: Differentiation of H1 cells to definitive endoderm in MCDB-131 with added glucose; FACS, real-time PCR, ViaCount at day 4 (Example 2); assay type: cell-based
Description: Cells of the human embryonic stem cell line H1 at passage 41 (p41) were lifted by TrypLE (Catalog #12604-013, Invitrogen, CA) and seeded as single cells at a density of 100,000 cells/cm^2 on MATRIGEL® coated dishes (1:30 dilution) in MEF-CM (mouse embryonic fibroblast conditioned media) supplemented with 20 ng/ml of FGF2 (Catalog #100-18B, PeproTech, NJ) and 10 μM of Y-27632 (a Rho Kinase Inhibitor, Catalog #Y0503, Sigma, MO). […] The cultures were differentiated into cells expressing markers characteristic of the definitive endoderm lineage 72 hrs post as follows: • a. […] MCDB-131 medium supplemented with 2% BSA, sodium bicarbonate, GlutaMax™, 100 ng/ml activin A, and either 0, 5, 10, 15, 20, or 25 mM of glucose for an additional three days.
However, these increases in cell number and CXCR4 were offset by a reduction in total cell viability (FIG. 2B).
These clustered cells were subsequently less evenly dispersed on the culture surface than populations of cells cultured in the basal level of glucose.

[4] = high glucose versus low glucose media
[5] = increased glucose concentration, clustered cells, real-time PCR

| Structure (SMILES) | CD9 expression levels [1] | CXCR4 expression [1] | CDX2 expression (qRT-PCR) [2, 4] | OCT4 expression (qRT-PCR) [2, 4] | SOX17 expression (qRT-PCR) [2, 4] | cells positive for CXCR4 ([2]; media containing 5.5 mM glucose) | cells positive for CXCR4 ([2]; media containing 25 mM glucose) | CXCR4 expression ([3]; additional 5 mM glucose (10.5 mM final), MCDB-131, day 4) | cell number ([3]; additional 10 mM glucose (15.5 mM final), MCDB-131, day 4) | SOX17 positive cells ([3]; basal level of glucose (5.5 mM), MCDB-131) | CD9 expression [3, 5] | MNX1 (HLXB9) gene expression [3, 5] | OCT4 expression [3, 5] | SOX7 expression [3, 5] | total cell viability ([3]; supplemented glucose (10.5 to 15.5 mM final), MCDB-131, day 4) |
| --- | --- | --- | --- | --- | --- | --- | --- | --- | --- | --- | --- | --- | --- | --- | --- |
| O=C([O-])O.[Na+] [Sodium Bicarbonate] | lower | significantly higher |  |  |  |  |  |  |  |  |  |  |  |  |  |
| O=C[C@H](O)[C@@H](O)[C@H](O)[C@H](O)CO [glucose] |  |  | increased | increased | decreased | 88.6% | 80% | modest increase | modest increase | almost every cell in the culture was SOX17 positive | slight increase | decrease | slight increase | slight increase | reduction |
